Data on 2 molecules can be found in patent US5876946A, “High-throughput assay” (Pharmacopeia, Inc., priority 1997, dated 1999).

The target in one assay is IL-8 receptor. As to the kind of experiment: conventional [^125 I]IL-8 ligand displacement assay. Type of assay: binding.
The target in assay [1] is T1, neurokinin-2 receptor (NK2R/CHO cells) (Homo sapiens, UniProt P21452).
T1 construct: expressed in transfected cells; host or cells: CHO cells (NK2R/CHO)
T1 sequence (P21452 1-398): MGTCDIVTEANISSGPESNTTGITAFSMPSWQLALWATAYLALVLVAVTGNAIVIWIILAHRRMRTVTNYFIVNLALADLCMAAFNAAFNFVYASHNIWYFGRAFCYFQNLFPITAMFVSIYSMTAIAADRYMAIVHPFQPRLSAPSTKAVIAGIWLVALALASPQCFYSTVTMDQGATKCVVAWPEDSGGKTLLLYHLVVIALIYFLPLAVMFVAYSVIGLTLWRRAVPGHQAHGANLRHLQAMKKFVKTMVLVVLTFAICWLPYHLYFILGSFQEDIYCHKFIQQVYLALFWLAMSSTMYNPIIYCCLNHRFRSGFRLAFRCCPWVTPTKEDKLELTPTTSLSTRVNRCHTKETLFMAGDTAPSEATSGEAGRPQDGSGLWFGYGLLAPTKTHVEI
As to the kind of experiment: Displacement of Cy5-NKA bound to NK2R/CHO cells by SR48,968. The assay is classed as binding.
Experimental: (a) Cells expressing neurokinin-2 receptor (NK2R/CHO) were obtained.
A culture of NK2R/CHO cells, near confluence, was washed with 12 mL DPBS(Mg^+2 & Ca^+2 free), trypsinized by adding trypsin (2 mL/T-25 flask), incubating at 37° C. for about 5 min, then quenching with 10 mL media. Cells were then counted, and diluted to the desired final concentration of cells (5,000 cells/25 μL). […] The plate was covered and wrapped in aluminum foil to protect from light and left to shake for 1 hr at room temperature. For each sample, 25 μL was removed, placed in an IMAGN 2000™ capillary, and read using IMAGN™ software (Biometric Imaging, Inc.) The sample was allowed to settle until the cells rested on the bottom of the well. The time require for settling was typically 10 minutes.
SR-48,968 is a known inhibitor of the binding of NKA neurokinin 2 receptor.
"Max" and "min" refer to the maximum and minimum fluorescence for the relevant value.
% Control=((Value-Min)/(Max-Min))×100

By Ki is commonly meant the dissociation constant of the complex between target and ligand, obtained from inhibition or displacement. High values mean lower affinity, low ones higher affinity. As for “hIL(S72C)-Cy5: Human interleukin-8, Ser72→Cys mutant (hIL-8(S72C)), labelled with monofunctional Cy5-iodoacetamide”, on IL-8 receptor, the affinity, expressed as Ki, was 2 nM.

As a reminder, the IC50 is the concentration needed to halve the response being measured. The Hill coefficient is the slope factor of the fitted curve. For the molecule `CC(=O)NC1(c2ccccc2)CCN(CCC(CN(C)C(=O)c2ccccc2)c2ccc(Cl)c(Cl)c2)CC1` (stereo not shown) [SR48.968], the IC50 in assay [1] was 0.575 nM. Besides, the “estimated Ki” value in assay [1] (displacement of Cy5-NKA) was roughly 0.29 nM. In assay [1] (displacement of Cy5-NKA by SR48.968), this molecule had a Hill coefficient of 0.996.
